According to patent US20230027361A1, “METTL3 MODULATORS” (priority 2019, published 2023):
Where two headings read alike, the source gives them in different places.

Key:
METTL3/METTL14 = METTL3/METTL14 (Homo sapiens, UniProt Q86U44); test: METTL3-14 Standard Enzyme Assay (METTL3 biochemical assay)
Procedure, shortened: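 METTL3/METTL14 at 2.5 nM, preincubated 5 min with compound in 20 mM HEPES pH 7.5, 50 mM KCl, 250 μM MgCl2, 1 mM DTT, at ambient temperature. Started with 100 nM 3′-biotinylated RNA and 100 nM ³H-SAM, quenched at 30 min with 15 μM cold SAM. Methylation read by scintillation on streptavidin flashplates.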

PRMT5-MEP50 = PRMT5-MEP50 (Homo sapiens, UniProt O14744); test: PRMT5 Assay (PRMT5 biochemical assay)
Chain of PRMT5-MEP50 (O14744 whole entry): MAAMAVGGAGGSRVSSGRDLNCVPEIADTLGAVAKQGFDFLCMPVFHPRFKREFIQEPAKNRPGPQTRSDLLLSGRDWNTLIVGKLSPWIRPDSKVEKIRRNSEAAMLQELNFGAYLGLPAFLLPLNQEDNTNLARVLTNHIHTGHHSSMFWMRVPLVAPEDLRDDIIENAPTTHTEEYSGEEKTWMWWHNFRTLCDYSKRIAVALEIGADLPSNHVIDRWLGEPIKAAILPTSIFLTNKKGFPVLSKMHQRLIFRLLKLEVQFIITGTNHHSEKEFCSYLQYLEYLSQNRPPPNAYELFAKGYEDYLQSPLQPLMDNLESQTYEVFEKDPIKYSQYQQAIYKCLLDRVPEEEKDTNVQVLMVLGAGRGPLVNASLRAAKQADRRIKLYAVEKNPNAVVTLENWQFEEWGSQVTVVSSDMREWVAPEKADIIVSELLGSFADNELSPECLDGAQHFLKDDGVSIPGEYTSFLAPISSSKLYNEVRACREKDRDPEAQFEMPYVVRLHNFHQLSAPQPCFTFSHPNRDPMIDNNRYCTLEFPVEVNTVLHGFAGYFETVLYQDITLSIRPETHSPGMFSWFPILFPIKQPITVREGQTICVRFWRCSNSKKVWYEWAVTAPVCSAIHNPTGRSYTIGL
Chain of PRMT5-MEP50 (Q9BQA1 whole entry partner): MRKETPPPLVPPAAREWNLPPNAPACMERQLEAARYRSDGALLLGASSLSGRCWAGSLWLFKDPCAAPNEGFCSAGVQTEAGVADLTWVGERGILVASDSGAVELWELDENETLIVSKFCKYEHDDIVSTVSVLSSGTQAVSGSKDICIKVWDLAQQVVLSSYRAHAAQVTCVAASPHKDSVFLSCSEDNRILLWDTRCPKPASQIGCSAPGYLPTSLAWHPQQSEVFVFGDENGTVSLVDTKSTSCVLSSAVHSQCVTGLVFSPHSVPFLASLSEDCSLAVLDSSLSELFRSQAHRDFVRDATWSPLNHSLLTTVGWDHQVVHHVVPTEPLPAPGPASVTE
Procedure, shortened: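 PRMT5-MEP50 (2.5 nM final) preincubated 5 min with compound, then reacted 60 min at ambient temperature with 100 nM biotinylated N-acetyl histone H4 peptide and 250 nM 3H-SAM in 20 mM Tris-HCl pH 8.0, 1 mM DTT, 0.01% Tween. Quenched with 15 μM cold SAM; methylated peptide captured on streptavidin flashplates, scintillation counted.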

MOLM-13 cells = test: MOLM-13 48 Hour Cell Proliferation Assay; assay type: cell-based; conditions: Homo sapiens
Procedure, shortened: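 MOLM-13 cells in RPMI 1640 with 10% FBS, plated overnight, then exposed 48 h at 37 °C to a 10-point, 4-fold compound dilution series (0.25% DMSO final). Viability read by CellTiter-Glo luminescence, normalized to staurosporine (100% death) and DMSO (0%); IC50 from 4-parameter logistic fit.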

METTL1/WDR4 = METTL1/WDR4 (Homo sapiens, UniProt Q9UBP6); test: METTL1 Assay (METTL1 biochemical assay)
Chain of METTL1/WDR4 (Q9UBP6 whole entry, species assumed): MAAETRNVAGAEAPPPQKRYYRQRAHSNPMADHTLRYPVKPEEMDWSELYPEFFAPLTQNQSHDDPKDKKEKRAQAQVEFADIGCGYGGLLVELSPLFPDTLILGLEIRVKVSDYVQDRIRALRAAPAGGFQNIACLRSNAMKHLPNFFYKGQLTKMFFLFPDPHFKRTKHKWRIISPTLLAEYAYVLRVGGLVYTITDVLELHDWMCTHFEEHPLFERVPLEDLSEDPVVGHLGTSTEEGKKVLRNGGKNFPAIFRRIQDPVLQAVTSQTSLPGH
Chain of METTL1/WDR4 (P57081 whole entry partner, species assumed): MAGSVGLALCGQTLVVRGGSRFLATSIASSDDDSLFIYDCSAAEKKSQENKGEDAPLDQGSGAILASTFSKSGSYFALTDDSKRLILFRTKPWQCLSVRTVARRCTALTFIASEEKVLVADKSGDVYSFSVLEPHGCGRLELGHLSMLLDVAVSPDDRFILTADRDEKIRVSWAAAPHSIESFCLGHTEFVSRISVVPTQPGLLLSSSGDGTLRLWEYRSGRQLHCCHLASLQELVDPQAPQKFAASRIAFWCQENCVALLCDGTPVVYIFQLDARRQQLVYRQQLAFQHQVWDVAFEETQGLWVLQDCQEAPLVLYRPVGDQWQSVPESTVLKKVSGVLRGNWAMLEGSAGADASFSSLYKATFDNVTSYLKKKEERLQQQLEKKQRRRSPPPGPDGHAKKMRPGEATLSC
Procedure, shortened: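 Radiometric methyltransfer by METTL1/WDR4 (6.25 nM f.c., 5 min preincubation) at ambient temperature in HEPES pH 7.5, KCl, MgCl2, DTT; started with 25 nM 3′-biotinylated RNA and 60 nM 3H-SAM, run 20 min, quenched with 15 μM cold SAM. Product captured on streptavidin flashplates (2 h, 25° C), counted by scintillation.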

[1] = read-out: METTL3 IC50; METTL3 biochemical assay
[2] = read-out: PRMT5 IC50; PRMT5 biochemical assay
[3] = read-out: METTL1 IC50, METTL1 biochemical assay
[4] = METTL3 biochemical assay; read-out: METTL3 IC50
[5] = PRMT5 biochemical assay; read-out: PRMT5 IC50

Chain of METTL3/METTL14 (Q86U44 whole entry, species assumed): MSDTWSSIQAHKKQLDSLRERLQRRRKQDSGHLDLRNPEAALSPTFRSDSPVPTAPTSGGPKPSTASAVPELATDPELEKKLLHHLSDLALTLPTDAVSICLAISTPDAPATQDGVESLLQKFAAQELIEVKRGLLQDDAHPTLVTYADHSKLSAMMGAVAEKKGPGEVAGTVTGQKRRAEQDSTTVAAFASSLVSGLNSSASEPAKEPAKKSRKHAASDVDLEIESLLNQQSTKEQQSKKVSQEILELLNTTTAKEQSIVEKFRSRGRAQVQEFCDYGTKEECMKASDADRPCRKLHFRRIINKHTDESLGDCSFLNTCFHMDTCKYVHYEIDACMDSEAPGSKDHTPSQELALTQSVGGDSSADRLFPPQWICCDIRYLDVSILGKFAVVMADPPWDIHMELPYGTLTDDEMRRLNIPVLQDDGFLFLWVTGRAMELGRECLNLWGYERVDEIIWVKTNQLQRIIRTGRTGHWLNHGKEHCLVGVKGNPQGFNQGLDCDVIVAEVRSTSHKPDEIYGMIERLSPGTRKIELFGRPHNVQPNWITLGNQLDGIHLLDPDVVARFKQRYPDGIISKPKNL
Chain of METTL3/METTL14 (Q9HCE5 whole entry partner, species assumed): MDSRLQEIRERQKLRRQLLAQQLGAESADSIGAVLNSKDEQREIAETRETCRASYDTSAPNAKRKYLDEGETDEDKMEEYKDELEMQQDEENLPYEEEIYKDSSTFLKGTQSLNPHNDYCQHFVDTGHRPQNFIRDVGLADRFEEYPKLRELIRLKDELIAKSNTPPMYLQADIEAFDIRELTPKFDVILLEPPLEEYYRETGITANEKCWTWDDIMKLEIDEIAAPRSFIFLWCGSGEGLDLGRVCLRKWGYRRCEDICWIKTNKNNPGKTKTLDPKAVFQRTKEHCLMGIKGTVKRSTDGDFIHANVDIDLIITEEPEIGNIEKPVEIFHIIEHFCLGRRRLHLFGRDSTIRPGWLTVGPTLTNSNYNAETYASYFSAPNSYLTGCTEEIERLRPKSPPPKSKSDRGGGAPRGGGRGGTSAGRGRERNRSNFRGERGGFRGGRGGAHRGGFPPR

CCNc1ccc2ccc(OC[C@H]3O[C@@H](n4cc(-c5cn(C)cn5)c5c(N)ncnc54)[C@@H](F)[C@@H]3O)cc2n1 [I-10]
IC50 (METTL3/METTL14; [1]): < 0.01 µM | IC50 (PRMT5-MEP50; [2]): 0.1 to 1 µM | IC50 (MOLM-13 cells): 1 to 10 µM

CNc1ccc2ccc(OC[C@H]3O[C@@H](n4cc(-c5ccn(C)n5)c5c(N)ncnc54)[C@@H](F)[C@@H]3O)cc2n1 [I-12]
IC50 (METTL3/METTL14; [1]): < 0.01 µM | IC50 (PRMT5-MEP50; [2]): 0.01 to 0.1 µM | IC50 (MOLM-13 cells): < 1 µM

CNc1ccc2ccc(OC[C@H]3O[C@@H](n4cc(CC5CCCC5)c5c(N)ncnc54)[C@H](O)[C@@H]3O)cc2n1 [I-23]
IC50 (METTL1/WDR4; [3]): > 1 µM | IC50 (METTL3/METTL14; [4]): < 0.01 µM | IC50 (PRMT5-MEP50; [5]): 0.01 to 0.1 µM | IC50 (MOLM-13 cells): > 10 µM

CNc1ccc2ccc(OC[C@H]3O[C@@H](n4cc(C5CC5)c5c(N)ncnc54)[C@@H](F)[C@@H]3O)cc2n1 [I-29]
IC50 (METTL1/WDR4; [3]): > 1 µM | IC50 (METTL3/METTL14; [4]): < 0.01 µM | IC50 (PRMT5-MEP50; [5]): 0.1 to 1 µM | IC50 (MOLM-13 cells): < 1 µM

CNc1ccc2ccc(OC[C@H]3O[C@@H](n4cc(C5CCCC5)c5c(N)ncnc54)[C@H](O)[C@@H]3O)cc2n1 [I-33, (2R,3R,4S,5R)-2-(4-amino-5-cyclopentyl-7H-pyrrolo[2,3-d]pyrimidin-7-yl)-5-(((2-(methylamino)quinolin-7-yl)oxy)methyl)tetrahydrofuran-3,4-diol]
IC50 (METTL1/WDR4): > 1 µM | IC50 (METTL3/METTL14; [4]): < 0.01 µM | IC50 (PRMT5-MEP50; [5]): < 0.01 µM | IC50 (MOLM-13 cells): 1 to 10 µM

CNc1ccc2ccc(OC[C@H]3O[C@@H](n4cc(CC5CC5)c5c(N)ncnc54)[C@@H](F)[C@@H]3O)cc2n1 [I-36]
IC50 (METTL1/WDR4; [3]): > 1 µM | IC50 (METTL3/METTL14; [4]): < 0.01 µM | IC50 (PRMT5-MEP50; [5]): 0.1 to 1 µM | IC50 (MOLM-13 cells): 1 to 10 µM

CNc1ccc2ccc(CC[C@H]3O[C@@H](n4cc(C5CCCC5)c5c(N)ncnc54)[C@H](O)[C@@H]3O)cc2n1 [I-39]
IC50 (METTL1/WDR4; [3]): > 1 µM | IC50 (METTL3/METTL14; [4]): < 0.01 µM | IC50 (PRMT5-MEP50; [5]): < 0.01 µM | IC50 (MOLM-13 cells): 1 to 10 µM

CNc1ccc2ccc(OC[C@H]3O[C@@H](n4cc(Cl)c5c(N)ncnc54)[C@H](O)[C@@H]3O)cc2n1 [I-70]
IC50 (METTL1/WDR4; [3]): > 1 µM | IC50 (METTL3/METTL14; [4]): < 0.01 µM | IC50 (PRMT5-MEP50; [5]): < 0.01 µM | IC50 (MOLM-13 cells): 1 to 10 µM

CNc1ccc2ccc(OC[C@H]3O[C@@H](n4cc(Br)c5c(N)ncnc54)[C@H](O)[C@@H]3O)cc2n1 [I-73]
IC50 (METTL1/WDR4; [3]): > 1 µM | IC50 (METTL3/METTL14; [4]): < 0.01 µM | IC50 (PRMT5-MEP50; [5]): < 0.01 µM | IC50 (MOLM-13 cells): 1 to 10 µM

Cn1ccc(-c2cn([C@@H]3O[C@H](COc4ccc5ccc(N6CCC6)nc5c4)[C@@H](O)[C@@H]3F)c3ncnc(N)c23)n1 [I-149]
IC50 (METTL1/WDR4; METTL1 biochemical assay, read-out: METTL1 IC50): > 1 µM | IC50 (METTL3/METTL14; [1]): < 0.01 µM | IC50 (PRMT5-MEP50; [2]): > 1 µM | IC50 (MOLM-13 cells): < 1 µM
